Data: US8058309B2, “Protein kinase modulators and therapeutic uses thereof” (Novotyr Therapeutics Ltd., priority 2006, dated 2011)

What was measured:
NCl-H1975 = test: Proliferation assay NCl-H1975; type: cell-based; settings: Lung, 72 hours
Protocol: (§1) Various cancer cell lines (listed in table 1) were plated at a density of 1000-5000 cells/well in 96-well plates in 90111 growth medium containing 10% FCS, 100 units/ml penicillin and 100 μg/ml streptomycin. Inhibitors were added a day later in 10 μl of 1% DMSO in DDW to obtain final concentrations of 0, 0.1, 0.3, 1, 3, and 10 μM. The final concentration of DMSO (0.1% DMSO) was kept constant in all samples. Medium with inhibitors was refreshed a day and two days later. Following exposure of the cells to the inhibitors for 72 hours at 37° C., the cells were fixed in 0.5% gluteraldehyde in medium for 10 min, washed three times with DDW, once with 0.1M sodium borate buffer pH 8.5 and stained with 1% methylene blue dissolved in 0.1M borate buffer solution for 60 min. Excess dye was washed out and cell-bound dye was eluted with 200 μl/well of 0.1 M HCl. The optical density value was read at 620 nm in ELISA plate reader. The data was analyzed in Microsoft Excel, using the vehicle control as 100% proliferation. The assays were performed in triplicates. The values in table 1 represent IC50 values derived from the dose-dependent growth curves obtained.
(§2) Compounds 6, 7, 8, and 9 were tested for their inhibitory potential in cell proliferation assay. In this assay cells were exposed to increasing concentrations of the molecules (at 0.1% DMSO in all wells) a day after seeding. Medium and inhibitors were refreshed every day, and following three days of treatment, cells were fixed and stained with methylene-Blue. IC50 values were determined from the curves of the optical density against compound concentration. The assay was performed in triplicates.

QG56 [1] = test: Proliferation assay QG56; type: cell-based; settings: Homo sapiens, QG-56, Lung, 72 hours
Protocol: as §1, §2

IRS1 = IRS1 Ser-phosphorylation and IRS1 levels in MCF7 cells; type: cell-based; settings: breast cancer MCF7 cells
Protocol: Tyrosine autophosphorylation of the β-subunit of IGF1R as well as downstream signaling induced by IGF1R were assayed in breast cancer MCF7 cells. Tyrosine autophosphorylation of the EGFR and the EGFR signaling was assayed in prostate cancer PC3 cells. Tyrosine autophosphorylation of the PDGFR and its signaling was assayed in fibroblasts overexpres sing PDGFR. Tyro sine autophosphorylation of the IR and its signaling was assayed in fibroblasts overexpressing IR. Cells were seeded in 6-well plates (MCF7-250,000 cells/well, PC3-150,000 cells/well, fibroblasts-140,000 cells/well) and 24 hours later medium was replaced by serum-free medium (DMEM supplemented with 100 units/ml penicillin and 100 μg/ml streptomycin). Following 20 hours of serum-starvation medium was replaced with medium containing various concentrations of the inhibitors in 0.1% DMSO for additional 4 hours. Cells were then stimulated for 5 min with 50 ng/ml IGF-1 (MCF7 cells), 20 ng/ml EGF (PC3 cells), 50 ng/ml PDGF (fibroblasts overexpressing PDGFR) or 100 nM insulin (fibroblasts overexpressing IR), washed twice with PBS and lysed by boiling sample buffer (10% glycerol, 50 mM Tris-HCl, pH 6.8, 3% SDS, and 5%, β-mercaptoethanol). Equal amounts of protein per lane were separated by 8% SDS-PAGE and transferred to a nitrocellulose membrane (Sartorius AG). Phosphorylated proteins were immunoblotted with anti-phospho-IGF1R (phosphor-IGF1R), anti-phosphotyrosine-IRS1 (phospho-IRS1), anti-phospho(T308)Akt (phospho-PKB), anti-phospho-Erk (phospho-ERK), anti-phosphotyrosine 4G10&PY20 (pY-EGFR or pY-PDGFR), anti-phospho-Ser^636/639-IRS1 (pS^636/639-IRS1) and anti-phospho-STAT3 (phospho-STAT3) antibodies. Detection was performed with horseradish peroxidase-conjugated secondary antibody using the ECL system. Blots were then stripped of antibodies, blocked with TBST with 5% low fat milk and re-probed with antibodies detecting both the phosphorylated and the non-phosphorylated corresponding proteins e.g. IGF1Rβ, IRS1, PKB, ERK, IRβ, PDGFR and Stat3.
In addition, lysates were prepared from cells exposed to inhibitors at various concentrations for 24 hours in the presence or the absence of FCS without stimulation. Lysate preparation and western blot were the same as described above. Apoptosis was detected by immunoblotting with rabbit anti-PARP antibodies.

LIM 1899 = test: Proliferation assay LIM 1899; type: cell-based; settings: Colon, 72 hours
Protocol: as §1, §2

AsPC1 = test: Proliferation assay AsPC1; type: cell-based; settings: Homo sapiens, Pancreatic, 72 hours
Protocol: as §1, §2

1376 = test: Proliferation assay 1376; type: cell-based; settings: Bladder, 72 hours
Protocol: as §1, §2

OVCAR3 = test: Proliferation assay OVCAR3; type: cell-based; settings: Homo sapiens, OVCAR-3, Ovarian, 72 hours
Protocol: as §1, §2

QG56 [2] = test: Clonogenic assay QG56; type: cell-based; settings: Homo sapiens, QG-56, Lung
Protocol: (§3) Various cancer cells (listed in table 1) were seeded at a very low concentration (19 cells/well in 96-well plates or 63 cells/well in 24-well plates) in growth medium. A day later medium was replaced with growth medium containing various concentrations of inhibitors in a final concentration of 0.1% DMSO. The inhibitor-containing medium was refreshed three times a week. Following approximately two weeks cells were fixed by adding Gluteraldehide (0.5% final concentration) for 10 min, washed three time with DDW, once with borate buffer 0.1M and stained for 1 hour with 1% Methylene Blue in borate buffer 0.1M. Access stain was washed with water, and following drying colonies were counted. Alternatively, stain was extracted by 0.1N HCl for 1 hour and absorbance at 620 nm was measured by ELISA Reader. The assays were performed in triplicates. The values in table 1 represent IC50 values derived from the dose-dependent growth curves obtained.

[3] = tested on: ovarian cancer A2780 cells; test: Apoptosis (cleaved PARP) in A2780 cells; type: cell-based, human; settings: 21 hours of exposure
Source text: […] Lysate preparation and western blot were the same as described above. Apoptosis was detected by immunoblotting with rabbit anti-PARP antibodies.

K562 = test: Proliferation assay K562; type: cell-based; settings: Homo sapiens, Leukemia, 72 hours
Protocol: as §1, §2

HT29 = test: Clonogenic assay HT29; type: cell-based; settings: Homo sapiens, HT-29, Colon
Protocol: as §3

SKBR-3 = test: Proliferation assay SKBR-3; type: cell-based; settings: Homo sapiens, SK-BR-3, Breast, 72 hours
Protocol: as §1, §2

A2780 = test: Clonogenic assay A2780; type: cell-based; settings: Homo sapiens, Ovarian
Protocol: as §3

T24P = test: Proliferation assay T24P; type: cell-based; settings: Bladder, 72 hours
Protocol: as §1, §2

U138MG = test: Clonogenic assay U138MG; type: cell-based; settings: Homo sapiens, U138-MG, Glioma
Protocol: as §3

LIM 1215 = test: Proliferation assay LIM 1215; type: cell-based; settings: LIM1215, Colon, 72 hours
Protocol: as §1, §2

Row | SMILES | IC50 (NCl-H1975) | IC50 (QG56 [1]) | Cellular levels of IRS1 (IRS1) | IC50 (LIM 1899) | IC50 (AsPC1) | IC50 1376 | IC50 (OVCAR3) | IC50 (QG56 [2]) | Apoptosis (cleaved PARP detection) [3] | IC50 (K562) | IC50 (HT29) | IC50 (SKBR-3) | IC50 (A2780) | IC50 (T24P) | IC50 (U138MG) | IC50 (LIM 1215) | IRS1 Ser-phosphorylation (IRS1)
1 | N#C/C(=C\c1cc(O)c(O)c(Br)c1)C(=S)NCc1cc(O)c(O)c(Br)c1 [Compound 6] | > 10 µM | > 10 µM | has no effect | > 10 µM | > 10 µM | 2.5 µM | > 10 µM | 2.4 µM | undergo apoptosis | > 10 µM | 9.5 µM | > 10 µM | 0.1 µM | > 10 µM | 2.2 µM | > 10 µM | 
2 | N#C/C(=C\c1cc(O)c(O)c(Br)c1)C(=S)NCc1cc(O)c(O)c(O)c1 [Compound 7] | 2.5 µM | 5.2 µM | induce a decrease in the cellular levels | 7.6 µM | > 10 µM | 0.9 µM | 2 µM | 1.7 µM | undergo apoptosis | ~10 µM | 2.8 µM | 9.9 µM | 0.4 µM | 1.2 µM | 1.8 µM | 6.5 µM | increase in IRS1 Ser-phosphorylation
3 | Oc1cc(CNC(=S)/C=C/c2cc(O)c(O)c(Br)c2)cc(O)c1O [Compound 9] | 2.7 µM | 2 µM |  | 2 µM | > 10 µM | 1.4 µM | 0.9 µM | 0.5 µM | undergo apoptosis | > 10 µM | 1.6 µM | 6 µM | 0.3 µM | 1.4 µM | 0.5 µM | 3.3 µM | trigger IRS1-ser phosphorylation
4 | N#C/C(=C\c1cc(O)c(O)c(I)c1)C(=S)NCc1cc(O)c(O)c(O)c1 [Compound 8] | 2.3 µM | 4.4 µM |  | 7.1 µM | 9.5 µM | 0.8 µM | 1.9 µM | 1.4 µM | undergo apoptosis | ~10 µM | 5.6 µM | 9 µM | 0.4 µM | 0.9 µM | 1.6 µM | 6.4 µM | trigger IRS1-ser phosphorylation
